Entries after “also recorded” stand apart in the source; their conditions may differ. Like-named read-outs stand apart in the source and are kept apart here.
Legend:
[1] = biological target: T1, human GluN1^FA,TL/GluN3A receptors (Homo sapiens, UniProt Q8TCU5); assay: Two-electrode voltage-clamp recordings of GluN1^FA,TL/GluN3A receptors in Xenopus oocytes; assay type: cell-based; settings: for remaining activity at 30 µM: read-out: hGluN1^FA,TL/hGluN3A (100 × Idrug/Icontrol at 30 μM drug); for Max Inhibition / % Inhibition GluN1^FATL/GluN3A: fitted maximum at saturating test compound; for Max Inhibition: 100 × (1 − Idrug/Icontrol); for Slope: concentration-response curve; for Slope / minimum: 1000 μM glycine; for minimum: residual response at saturating concentration; for hGluN1^FA,TL/hGluN3A (100 × Idrug/Icontrol): @ 10 μM
T1 construct: Human GluN3A (NP_597702.2) and rat GluN3B (NP_579842.2) were synthesized and subcloned into SP6 plasmids; expressed in transfected cells; host or cells: Xenopus laevis oocytes, cRNA injection (GluN1:GluN3 1:3)
Method in brief: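 Human GluN1 with human GluN3A cRNA (1:3) in oocytes, recorded 2-5 days post-injection at 23° C, holding −40 mV, in Ba2+-containing recording solution pH 7.4. Compounds screened at 10 or 30 μM; those inhibiting >20% given concentration-response fits for IC50, Hill slope and residual inhibition.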

[2] = system: GluN1/GluN2 NMDA receptors (GluN2A, GluN2B, GluN2C, GluN2D); assay: Recombinant GluN1/GluN2 NMDA receptors in Xenopus oocytes (selectivity); assay type: cell-based, rat
[3] = biological target: T2, rat GluN1-4a/GluN3B receptors (Rattus norvegicus, UniProt P35439+Q8VHN2); assay: Two-electrode voltage-clamp recordings of GluN1-4a/GluN3B receptors in the presence of CGP-78608 (Xenopus oocytes); assay type: cell-based; settings: 0.5 μM CGP-78608
T2 construct: Human GluN3A (NP_597702.2) and rat GluN3B (NP_579842.2) were synthesized and subcloned into SP6 plasmids; expressed in transfected cells; host or cells: Xenopus laevis oocytes, cRNA injection
From the text: (§1) cDNA encoding human wild-type (WT) GluN1-1a (GenBank accession numbers NP_015566, hereafter GluN1) and rat GluN1-1a (NP_058706.1) were synthesized and subcloned into pGEMHE plasmid; some experiments used the rat splice variant GluN1-4a (NP_001257531.1). Human GluN3A (NP_597702.2) and rat GluN3B (NP_579842.2) were synthesized and subcloned into SP6 plasmids. For most experiments, human GluN1 was co-expressed with human GluN3A, except for mutagenesis experiments where rat GluN1 was co-expressed with human GluN3A. Rat GluN1-4a was always expressed with rat GluN3B.
(§2) Defolliculated Xenopus laevis oocytes (stage V-VI) were obtained from Ecocyte BioScience (Austin, Texas), or prepared from commercially available Xenopus ovaries (Xenopus 1, Dexter, MI) as previously described (Hansen, et al., Mol. Pharmacol., 2013). A Drummond Nanoject II (Broomall, PA) was used to inject oocytes with cRNAs encoding GluN1 and GluN3 at a 1:3 ratio in RNase-free water. The cRNA was diluted as needed to give responses with amplitudes ranging between 200-2000 nA (0.2-10 ng total cRNA). Following cRNA injection, the oocytes were stored at 15-19° C. in Barth's solution that contained (in mM) 88 NaCl, 2.4 NaHCO3, 1 KCl, 0.33 Ca(NO3)2, 0.41 CaCl2), 0.82 MgSO4, and 5 Tris-HCl (pH 7.4 with NaOH), supplemented with 1 μg/ml streptomycin (Invitrogen, Carlsbad, CA) and 100 μg/ml gentamicin (Fisher Scientific, Pittsburgh, PA). Recordings were performed 2-5 days following cRNA microinjection at room temperature (23° C.) using a two-electrode voltage-clamp amplifier (OC725, Warner Instrument, Hamilton, CT). The signal was low-pass filtered at 10-20 Hz (4-pole, −3 dB Bessel) and digitized at the Nyquist rate using PCI-6025E or USB-6212 BNC data acquisition boards (National Instruments, Austin, TX) using EasyOocyte (http://www.easyoocyte.io/). Oocytes were placed in a custom-made chamber and continuously perfused (2.5 ml/min) with oocyte recording solution containing (in mM) 90 NaCl, 1 KCl, 10 HEPES, 0.5-1.0 BaCl2, and 0.01 EDTA (pH 7.4 with NaOH). Solutions were applied by gravity, and solution exchange was controlled through a rotary valve (Hamilton, Reno, NV). Recording electrodes were filled with 0.3-3.0 M KCl, and current responses were recorded at a holding potential of −40 mV.
(§3) Response (%)=(100−minimum)/(1+([concentration]/IC50)^nH)+minimum (2) • where nH is the Hill slope, IC50 is the concentration that produces a half-maximal effect, and minimum is the degree of residual inhibition at a saturating concentration of the negative allosteric modulator.
(§4) Selected compounds were also screened in the same assay as EU1180-438 to determine their effect on GluN3B.

[4] = biological target: T3, rat GluN1-4a/GluN3B receptors (Rattus norvegicus, UniProt Q8VHN2); assay: as above; assay type: cell-based; settings: @ 10 μM drug; 0.5 μM CGP-78608
T3 construct: Human GluN3A (NP_597702.2) and rat GluN3B (NP_579842.2) were synthesized and subcloned into SP6 plasmids; expressed in transfected cells; host or cells: Xenopus laevis oocytes, cRNA injection
From the text: as §1, §2, §3, §4

GluN1 = GluN1 (Homo sapiens, UniProt Q05586); settings: read-out: EC50 (glycine binding GluN1); cited from earlier work
GluN1/GluN3 receptors = settings: hydrochloride; cited from earlier work
[5] = hGluN1^FA,TL/hGluN3A, read-out: IC50 (95% CI) GluN3A
[6] = pH 7.4, holding potential −40 mV, read-out: EC50, (95% CI) GluN1^FATL/GluN3A
[7] = responses activated by 1000 μM glycine, pH 7.4, read-out: IC50
[8] = hGluN1^FA,TL/hGluN3A, read-out: IC50

T3 sequence (Q8VHN2 25-1002, other chains not shown): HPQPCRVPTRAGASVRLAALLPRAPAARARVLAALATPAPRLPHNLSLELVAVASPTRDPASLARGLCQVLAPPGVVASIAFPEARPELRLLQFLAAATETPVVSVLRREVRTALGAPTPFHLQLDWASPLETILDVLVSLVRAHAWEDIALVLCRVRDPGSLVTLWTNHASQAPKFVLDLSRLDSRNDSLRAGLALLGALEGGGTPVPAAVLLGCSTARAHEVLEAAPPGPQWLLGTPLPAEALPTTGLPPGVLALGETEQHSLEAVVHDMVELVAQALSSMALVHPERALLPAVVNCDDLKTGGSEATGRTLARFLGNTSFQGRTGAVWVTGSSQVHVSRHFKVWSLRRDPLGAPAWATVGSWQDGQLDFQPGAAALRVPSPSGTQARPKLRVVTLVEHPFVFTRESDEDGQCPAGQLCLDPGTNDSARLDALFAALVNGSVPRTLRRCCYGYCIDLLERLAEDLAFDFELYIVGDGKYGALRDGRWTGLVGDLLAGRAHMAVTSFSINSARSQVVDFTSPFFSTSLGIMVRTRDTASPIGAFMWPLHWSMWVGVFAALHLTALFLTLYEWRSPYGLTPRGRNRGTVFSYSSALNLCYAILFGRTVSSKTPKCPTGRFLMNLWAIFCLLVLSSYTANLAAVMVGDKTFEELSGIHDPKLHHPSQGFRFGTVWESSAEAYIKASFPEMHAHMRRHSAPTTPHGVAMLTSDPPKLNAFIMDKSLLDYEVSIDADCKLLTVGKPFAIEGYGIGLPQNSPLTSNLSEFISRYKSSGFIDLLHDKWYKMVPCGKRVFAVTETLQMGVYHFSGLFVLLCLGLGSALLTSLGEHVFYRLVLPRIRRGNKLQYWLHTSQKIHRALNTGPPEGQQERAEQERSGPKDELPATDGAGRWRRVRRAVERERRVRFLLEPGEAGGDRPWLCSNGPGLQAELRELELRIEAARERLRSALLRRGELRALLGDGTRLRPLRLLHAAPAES
T2 sequence (Q8VHN2 25-1002, other chains not shown): as above

Compound | activity toward recombinant GluN1/GluN2 NMDA receptors (GluN2A-D) [2] | Max Inhibition [1] [%] | IC50 [1, 5] [µM] | rat GluN1-4a/GluN3B + CGP (100 × Idrug/Icontrol) [4] [% @ 10 μM drug] | activity toward recombinant GluN1/GluN2 NMDA receptors (GluN2A-D) ([2]; 30 μM) | also measured
Cc1cccc(OCC(c2ccc(OC(C)C)cc2)N2Cc3cc(Cl)ccc3C2=O)n1 (stereo not shown) [EU1180-510, 5-chloro-2-(1-(4-isopropoxyphenyl)-2-((6-methylpyridin-2-yl)oxy)ethyl)isoindolin-1-one] | None of them showed any activity | – | – | – | – | remaining activity at 30 µM [1]: 94%
COc1ccc(OCC(c2ccc(OC)cc2)N2CCc3ccccc3C2=O)cc1 (stereo not shown) [EU1180-489, 2-(2-(4-methoxyphenoxy)-1-(4-methoxyphenyl)ethyl)-3,4-dihydroisoquinolin-1(2H)-one] | – | 44 | 10.8 | 31 | no detectable activity | IC50 [3]: 3.57 µM
COc1ccc(OCC(c2ccc(OC)cc2)N2Cc3ccccc3C2=O)cc1 (single isomer, unassigned; (+)) [(+) EU1180-438, 2-(2-(4-methoxyphenoxy)-1-(4-methoxyphenyl)ethyl)isoindolin-1-one] | – | – | – | 28 | – | Slope [1]: 1.2; % Inhibition GluN1^FATL/GluN3A ([1]; pH 7.4): 96%^a, (n = 22); IC50 [1, 6]: 7.1 µM; minimum [1]: 4%; IC50 [1, 7]: 7.1 µM
COc1ccc(OCC(c2ccccc2)N2CCc3ccccc3C2=O)cc1 (stereo not shown) [EU1180-488, 2-(2-(4-methoxyphenoxy)-1-phenylethyl)-3,4-dihydroisoquinolin-1(2H)-one] | – | 88 | 3.29 | 38 | no detectable activity | IC50 [3]: 3.43 µM
Cc1cccc(OCC(c2ccc(OC(C)C)cc2)N2Cc3ccc(C(F)(F)F)cc3C2=O)n1 (stereo not shown) [EU1180-511] | None of them showed any activity | – | – | – | – | remaining activity at 30 µM [1]: 94%
COc1ccc(OCC(c2ccc(OC)cc2)N2Cc3ccccc3C2=O)cc1 (single isomer, unassigned; (-)) [(−) EU1180-438, 2-(2-(4-methoxyphenoxy)-1-(4-methoxyphenyl)ethyl)isoindolin-1-one] | – | – | – | 70 | – | Slope [1]: 1.4; % Inhibition GluN1^FATL/GluN3A ([1]; pH 7.4): 84%^a, (n = 20); IC50 [1, 6]: 13 µM; minimum [1]: 16%; IC50 [1, 7]: 13 µM
NCC(=O)O [glycine] | – | – | – | – | – | EC50 (GluN1): 100 to 1000 nM
COc1ccc(OCC(c2ccccc2)N2Cc3ccccc3C2=O)cc1 (stereo not shown) [EU1180-487, 2-(2-(4-methoxyphenoxy)-1-phenyl-ethyl)isoindolin-1-one] | – | 78 | 10.8 | 42 | no detectable activity | IC50 [3]: 6.49 µM
COc1ccc(OCC(c2ccc(OC(C)C)cc2)N2Cc3ccccc3C2=O)cc1 (stereo not shown) [EU1180-481, 2-(1-(4-isopropoxyphenyl)-2-(4-methoxyphenoxy)ethyl)isoindolin-1-one] | – | 54 | 3.12 | – | no detectable activity | hGluN1^FA,TL/hGluN3A (100 × Idrug/Icontrol) [1]: 57%; IC50 [1, 8]: 3.12 µM
COc1ccc(OCC(c2ccc(OC)c(OC)c2)N2Cc3ccccc3C2=O)cc1 (stereo not shown) [EU1180-494, 2-(1-(3,4-dimethoxyphenyl)-2-(4-methoxyphenoxy)ethyl)isoindolin-1-one] | – | 3 | – | – | no detectable activity | –
CCOc1ccc(OCC(c2ccc(OC(C)C)cc2)N2Cc3ccccc3C2=O)cc1 (stereo not shown) [EU1180-499, 2-(2-(4-ethoxyphenoxy)-1-(4-isopropoxyphenyl)ethyl)isoindolin-1-one] | None of them showed any activity | – | – | – | – | hGluN1^FA,TL/hGluN3A (100 × Idrug/Icontrol) [1]: 67%; IC50 [1, 8]: 2.1 µM
C[C@@H](NCc1cc(Br)cc2[nH]c(=O)c(=O)[nH]c12)P(=O)(O)O.Cl [CGP-78608, [(1S)-1-[[(7-bromo-1,2,3,4-tetrahydro-2,3-dioxo-5-quinoxalinyl)methyl]amino]ethyl] phosphonic acid hydrochloride] | – | – | – | – | – | effect on activation of GluN1/GluN3 receptors (GluN1/GluN3 receptors): dramatically enhance activation of GluN1/GluN3 receptors; also recorded: strongly enhance GluN1/GluN3A current responses
Cc1cccc(OCC(c2ccc(OC(C)C)cc2)N2Cc3ccccc3C2=O)n1 (stereo not shown) [EU1180-508, 2-(1-(4-isopropoxyphenyl)-2-((6-methylpyridin-2-yl)oxy)ethyl)isoindolin-1-one] | None of them showed any activity | – | – | – | – | hGluN1^FA,TL/hGluN3A (100 × Idrug/Icontrol) [1]: 28%; IC50 [1, 8]: 3.93 µM
